What was measured:
BSJ-03-123 = compound: CC(=O)c1c(C)c2cnc(Nc3ccc(N4CCN(CCOCCOCCOCCNC(=O)COc5cccc6c5C(=O)N(C5CCC(=O)NC5=O)C6=O)CC4)cn3)nc2n(C2CCCC2)c1=O [BSJ-03-123]; test: increase in dead-cell fraction, 72 h; higher = more death;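 further: breast cancer cell lines in 384-well plates, stained with Hoechst plus LIVE/DEAD far red dye and imaged, cells above an LDR intensity threshold counted dead, Hoechst-negative corpses included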
[1] = compound: CC(=O)c1c(C)c2cnc(Nc3ccc(N4CCNCC4)cn3)nc2n(C2CCCC2)c1=O; test: as above
[2] = compound: CCN1CCN(Cc2ccc(Nc3ncc(F)c(-c4cc(F)c5nc(C)n(C(C)C)c5c4)n3)nc2)CC1; test: as above
Neratinib/HKI272 = compound: CCOc1cc2ncc(C#N)c(Nc3ccc(OCc4ccccn4)c(Cl)c3)c2cc1NC(=O)/C=C/CN(C)C [Neratinib/HKI272]; test: as above
[3] = compound: CCc1cnn2c(NCc3ccc[n+]([O-])c3)cc(N3CCCC[C@H]3CCO)nc12; test: as above
LEE011/Ribociclib = compound: CN(C)C(=O)c1cc2cnc(Nc3ccc(N4CCNCC4)cn3)nc2n1C1CCCC1 [LEE011/Ribociclib]; test: as above
THZ1 [4] = compound: T1, CN(C)C/C=C/C(=O)Nc1ccc(C(=O)Nc2cccc(Nc3ncc(Cl)c(-c4c[nH]c5ccccc45)n3)c2)cc1 [THZ1]; test: as above
Flavopiridol [5] = compound: T2, CN1CC[C@H](c2c(O)cc(O)c3c(=O)cc(-c4ccccc4Cl)oc23)[C@H](O)C1 [Flavopiridol]; test: as above
[6] = compound: CC(=O)c1c(C)c2cnc(Nc3ccc(N4CCNCC4)cn3)nc2n(C2CCCC2)c1=O; test: GR value, 72 h; higher = faster growth (1 = untreated, <0 = killing);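 further: breast cancer and non-malignant breast epithelial lines, nine half-log doses, viable cells counted by Hoechst and LIVE/DEAD dye imaging versus time-zero plates and DMSO controls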
THZ531 = compound: CN(C)C/C=C/C(=O)Nc1ccc(C(=O)N2CCC[C@@H](Nc3ncc(Cl)c(-c4c[nH]c5ccccc45)n3)C2)cc1 [THZ531]; test: as above
THZ1 [7] = compound: T1, THZ1; test: as above
Flavopiridol [8] = compound: T2, Flavopiridol; test: as above

## MDAMB330
BSJ-03-123; 0.001 µM
  increase in dead-cell fraction: 0.0018
BSJ-03-123; 0.003162 µM
  increase in dead-cell fraction: 0.0001
BSJ-03-123; 0.01 µM
  increase in dead-cell fraction: 0.0015
BSJ-03-123; 0.03162 µM
  increase in dead-cell fraction: 0.003
BSJ-03-123; 0.1 µM
  increase in dead-cell fraction: 0.0019
BSJ-03-123; 0.3162 µM
  increase in dead-cell fraction: 0.0031
BSJ-03-123; 1 µM
  increase in dead-cell fraction: 0.0019
BSJ-03-123; 3.162 µM
  increase in dead-cell fraction: 0.0034
BSJ-03-123; 10 µM
  increase in dead-cell fraction: 0.0354
[1]; 0.0003162 µM
  increase in dead-cell fraction: -0.001
[1]; 0.001 µM
  increase in dead-cell fraction: -0.0006
[1]; 0.003162 µM
  increase in dead-cell fraction: -0.001
[1]; 0.01 µM
  increase in dead-cell fraction: -0.0033
[1]; 0.03162 µM
  increase in dead-cell fraction: -0.0012
[1]; 0.1 µM
  increase in dead-cell fraction: -0.0017
[1]; 0.3162 µM
  increase in dead-cell fraction: 0.0031
[1]; 1 µM
  increase in dead-cell fraction: 0.0053
[1]; 3.162 µM
  increase in dead-cell fraction: 0.0031
[2]; 0.001 µM
  increase in dead-cell fraction: 0.0005
[2]; 0.003162 µM
  increase in dead-cell fraction: -0.0003
[2]; 0.01 µM
  increase in dead-cell fraction: 0.0039
[2]; 0.03162 µM
  increase in dead-cell fraction: 0.003
[2]; 0.1 µM
  increase in dead-cell fraction: 0.0014
[2]; 0.3162 µM
  increase in dead-cell fraction: 0.0018
[2]; 1 µM
  increase in dead-cell fraction: 0.0017
[2]; 3.162 µM
  increase in dead-cell fraction: 0.0048
[2]; 10 µM
  increase in dead-cell fraction: 0.0109
Neratinib/HKI272; 0.0003162 µM
  increase in dead-cell fraction: -0.0001
Neratinib/HKI272; 0.001 µM
  increase in dead-cell fraction: 0.0011
Neratinib/HKI272; 0.003162 µM
  increase in dead-cell fraction: 0.0102
Neratinib/HKI272; 0.01 µM
  increase in dead-cell fraction: 0.043
Neratinib/HKI272; 0.03162 µM
  increase in dead-cell fraction: 0.0716
Neratinib/HKI272; 0.1 µM
  increase in dead-cell fraction: 0.0731
Neratinib/HKI272; 0.3162 µM
  increase in dead-cell fraction: 0.0685
Neratinib/HKI272; 1 µM
  increase in dead-cell fraction: 0.0784
Neratinib/HKI272; 3.162 µM
  increase in dead-cell fraction: 0.0756
[3]; 0.0001 µM
  increase in dead-cell fraction: -0.0012
[3]; 0.0003162 µM
  increase in dead-cell fraction: -0.0001
[3]; 0.001 µM
  increase in dead-cell fraction: 0.0032
[3]; 0.003162 µM
  increase in dead-cell fraction: 0.0022
[3]; 0.01 µM
  increase in dead-cell fraction: 0.0023
[3]; 0.03162 µM
  increase in dead-cell fraction: 0.0691
LEE011/Ribociclib; 0.001 µM
  increase in dead-cell fraction: 0.0031
LEE011/Ribociclib; 0.003162 µM
  increase in dead-cell fraction: 0.0013
LEE011/Ribociclib; 0.01 µM
  increase in dead-cell fraction: 0.0054
LEE011/Ribociclib; 0.03162 µM
  increase in dead-cell fraction: 0.0111
LEE011/Ribociclib; 0.1 µM
  increase in dead-cell fraction: 0.0037
LEE011/Ribociclib; 0.3162 µM
  increase in dead-cell fraction: -0.0005
LEE011/Ribociclib; 1 µM
  increase in dead-cell fraction: -0.0028
LEE011/Ribociclib; 3.162 µM
  increase in dead-cell fraction: 0.0128
LEE011/Ribociclib; 10 µM
  increase in dead-cell fraction: 0.0025
THZ1 [4]; 0.0001 µM
  increase in dead-cell fraction: 0.0016
THZ1 [4]; 0.0003162 µM
  increase in dead-cell fraction: 0.0039
THZ1 [4]; 0.001 µM
  increase in dead-cell fraction: 0.0043
THZ1 [4]; 0.003162 µM
  increase in dead-cell fraction: 0.0044
THZ1 [4]; 0.01 µM
  increase in dead-cell fraction: 0.0071
THZ1 [4]; 0.03162 µM
  increase in dead-cell fraction: 0.105
THZ1 [4]; 0.1 µM
  increase in dead-cell fraction: 0.359
THZ1 [4]; 0.3162 µM
  increase in dead-cell fraction: 0.389
THZ1 [4]; 1 µM
  increase in dead-cell fraction: 0.311
Flavopiridol [5]; 0.0001 µM
  increase in dead-cell fraction: -0.0007
Flavopiridol [5]; 0.0003162 µM
  increase in dead-cell fraction: 0.0052
Flavopiridol [5]; 0.001 µM
  increase in dead-cell fraction: -0.0013
Flavopiridol [5]; 0.003162 µM
  increase in dead-cell fraction: -0.0006
Flavopiridol [5]; 0.01 µM
  increase in dead-cell fraction: -0.0015
Flavopiridol [5]; 0.03162 µM
  increase in dead-cell fraction: 0.0024
Flavopiridol [5]; 0.1 µM
  increase in dead-cell fraction: -0.0007
Flavopiridol [5]; 0.3162 µM
  increase in dead-cell fraction: 0.0097
Flavopiridol [5]; 1 µM
  increase in dead-cell fraction: 0.25
[6]; 0.0003162 µM
  GR value: 1.06 GR
[6]; 0.001 µM
  GR value: 0.943 GR
[6]; 0.003162 µM
  GR value: 0.931 GR
[6]; 0.01 µM
  GR value: 0.747 GR
[6]; 0.03162 µM
  GR value: 0.376 GR
[6]; 0.1 µM
  GR value: 0.224 GR
[6]; 0.3162 µM
  GR value: 0.17 GR
[6]; 1 µM
  GR value: 0.228 GR
[6]; 3.162 µM
  GR value: 0.213 GR
THZ531; 0.0001 µM
  GR value: 1.12 GR
THZ531; 0.0003162 µM
  GR value: 0.83 GR
THZ531; 0.001 µM
  GR value: 0.891 GR
THZ531; 0.003162 µM
  GR value: 0.971 GR
THZ531; 0.01 µM
  GR value: 0.805 GR
THZ531; 0.03162 µM
  GR value: 0.214 GR
THZ531; 0.1 µM
  GR value: -0.965 GR
THZ531; 0.3162 µM
  GR value: -0.962 GR
THZ531; 1 µM
  GR value: -0.968 GR
THZ1 [7]; 0.0001 µM
  GR value: 1.19 GR
THZ1 [7]; 0.0003162 µM
  GR value: 0.925 GR
THZ1 [7]; 0.001 µM
  GR value: 1.1 GR
THZ1 [7]; 0.003162 µM
  GR value: 0.734 GR
THZ1 [7]; 0.01 µM
  GR value: 0.455 GR
THZ1 [7]; 0.03162 µM
  GR value: -0.545 GR
THZ1 [7]; 0.1 µM
  GR value: -0.924 GR
THZ1 [7]; 0.3162 µM
  GR value: -0.898 GR
THZ1 [7]; 1 µM
  GR value: -0.945 GR
Flavopiridol [8]; 0.0001 µM
  GR value: 0.986 GR
Flavopiridol [8]; 0.0003162 µM
  GR value: 0.935 GR
Flavopiridol [8]; 0.001 µM
  GR value: 1.03 GR
Flavopiridol [8]; 0.003162 µM
  GR value: 1.01 GR
Flavopiridol [8]; 0.01 µM
  GR value: 0.911 GR
Flavopiridol [8]; 0.03162 µM
  GR value: 0.85 GR
Flavopiridol [8]; 0.1 µM
  GR value: 0.735 GR
Flavopiridol [8]; 0.3162 µM
  GR value: 0.285 GR
Flavopiridol [8]; 1 µM
  GR value: -0.892 GR
